Data set [1] has as its system Rattus norvegicus. In words: Anti-ulcerative colitis activity in acetic acid-induced ulcerative colitis Wistar rat model assessed as normal mucosa without cryptic loss in colon at 400 mg/kg, po administrated for 14 days by microscopic analysis. The class given is functional, organism-based. The conditions noted are these: time 14.0 day.
For data set [2], the system named is Rattus norvegicus. In words: Anti-ulcerative colitis activity in acetic acid-induced ulcerative colitis Wistar rat model assessed as reduction in acetic acid-induced oxidative stress by measuring increase in SOD level in colon at 400 mg/kg, po administrated for 14 days by UV spectrophotometric analysis. The class given is functional, organism-based. The conditions noted are these: time 14.0 day.

The test system of data set [3] is Rattus norvegicus. As to the kind of experiment: Anti-ulcerative colitis activity in acetic acid-induced ulcerative colitis Wistar rat model assessed as reduction in diarrhea at 400 mg/kg, po administrated for 14 days and measured during initial 5 to 6 days of treatment. In kind it is functional, organism-based. The conditions noted are these: time 5-6 day.
Data set [4] can be described thus: Toxicity in albino rat assessed as behavioral changes at 300 mg/kg observed for 14 days. The class given is organism-based. The conditions noted are these: in vivo, 336 h, time 14 day.
Data set [5] has as its system Rattus norvegicus. As to the kind of experiment: Anti-ulcerative colitis activity in acetic acid-induced ulcerative colitis Wistar rat model assessed as change in stool uniformity at 400 mg/kg, po administrated for 14 days. The class given is functional, organism-based. The conditions noted are these: time 14.0 day.
Data set [6] deals with Rattus norvegicus. In words: Anti-ulcerative colitis activity in acetic acid-induced ulcerative colitis Wistar rat model assessed as reduction in acetic acid-induced lipid peroxidation by measuring reduction in MDA level in colon at 400 mg/kg, po administrated for 14 days. The class given is functional, organism-based. The conditions noted are these: time 14.0 day.
Data set [7] relates to Rattus norvegicus. In words: Anti-ulcerative colitis activity in acetic acid-induced ulcerative colitis Wistar rat model assessed as body weight recovery measured as body weight gain at 400 mg/kg, po administrated for 14 days relative to control. As to conditions: time 14 day. In kind it is functional.
Data set [8] has as its system Rattus norvegicus. As to the kind of experiment: Anti-ulcerative colitis activity in acetic acid-induced ulcerative colitis Wistar rat model assessed as restoration of normal stool consistency at 400 mg/kg, po administrated for 14 days and measured during initial 4-5 days of treatment. In kind it is functional, organism-based. The conditions noted are these: time 4-5 day.

Data set [9] can be described thus: Toxicity in albino rat assessed as toxic signs at 300 mg/kg observed for 14 days. In kind it is organism-based. As to conditions: in vivo, 336 h, time 14 day.
The subject of data set [10] is Rattus norvegicus. As to the kind of experiment: Anti-ulcerative colitis activity in acetic acid-induced ulcerative colitis Wistar rat model assessed as decrease in bleeding at 400 mg/kg, po administrated for 14 days and measured during initial 4-5 days of treatment. The conditions noted are these: time 4-5 day. The class given is functional, organism-based.
The nature of data set [11]: Toxicity in albino rat assessed as lethality at 2000 mg/kg. The class given is organism-based. As to conditions: in vivo.
The subject of data set [12] is Rattus norvegicus. As to the kind of experiment: Anti-ulcerative colitis activity in acetic acid-induced ulcerative colitis Wistar rat model assessed as reduction in blood content in feces without change in feces colour at 400 mg/kg, po administrated for 14 days. As to conditions: time 14.0 day. The class given is functional, organism-based.
Data set [13] in a line: Toxicity in albino rat assessed as toxic symptoms at 300 mg/kg observed for 14 days. In kind it is organism-based. As to conditions: in vivo, 336 h, time 14 day.
In data set [14] the test system is Rattus norvegicus. In words: Anti-ulcerative colitis activity in acetic acid-induced ulcerative colitis Wistar rat model assessed as reduction in onset of diarrhea at 400 mg/kg, po administrated for 14 days and measured during initial 8 to 9 days of treatment. The conditions noted are these: time 8-9 day. The class given is functional, organism-based.
The test system of data set [15] is Rattus norvegicus. In words: Anti-ulcerative colitis activity in acetic acid-induced Wistar rat ulcerative colitis model assessed as reduction in infiltration of inflammatory cells in colon at 400 mg/kg, po administrated for 14 days by microscopic analysis. In kind it is functional, organism-based. The conditions noted are these: time 14.0 day.
Data set [16] relates to Rattus norvegicus. As to the kind of experiment: Anti-ulcerative colitis activity in acetic acid-induced ulcerative colitis Wistar rat model assessed as reduction in sub-mucosal edema in colon at 400 mg/kg, po administrated for 14 days by microscopic analysis. In kind it is functional, organism-based. The conditions noted are these: time 14.0 day.
Data set [17] deals with Rattus norvegicus. In words: Anti-ulcerative colitis activity in acetic acid-induced ulcerative colitis Wistar rat model assessed as mild deformation of mucosal layer with disruption of epithelium in colon at 400 mg/kg, po administrated for 14 days by microscopic analysis. In kind it is functional, organism-based. The conditions noted are these: time 14.0 day.
Data set [18] deals with Rattus norvegicus. As to the kind of experiment: Anti-ulcerative colitis activity in acetic acid-induced ulcerative colitis Wistar rat model assessed as reduction in blood content in feces with parrot green to green dotted colour at 400 mg/kg,po administrated for 14 days. As to conditions: time 14.0 day. The class given is functional, organism-based.
For data set [19], the system named is Rattus norvegicus. In words: Anti-ulcerative colitis activity in acetic acid-induced ulcerative colitis Wistar rat model assessed as reduction in damage of mucosa in colon at 400 mg/kg, po administrated for 14 days by microscopic analysis. The conditions noted are these: time 14.0 day. The class given is functional, organism-based.

Calls of active or inactive are those of the source. No cut-off for these calls is given here.

For the molecule `Cc1cc(=O)oc2c(/N=N/c3ccc(O)c(C(=O)O)c3)c(O)ccc12`, the outcome in [1], in data set [2], in data set [3], in data set [5], in data set [6] and in [8] was Active. For the same molecule, the outcome in data set [10], in data set [12] and in data set [14] was Active. In addition, the Activity result is on record as “Non-Toxic” in data set [4]; 92% in data set [7]; “Non-Toxic” in data set [9]; “Toxic” in data set [11]; “Non-Toxic” in data set [13].
For `Nc1ccc(O)c(C(=O)O)c1` [MESALAMINE], the result in data set [2], in data set [15], in data set [3], in data set [5], in [6] and in [16] was Active. Moreover, the result in data set [18], in data set [14] and in [19] was Active. Also, the Activity in data set [7] was 88%. Moreover, the result in [17] was inactive.

For the origin of these results see ChEMBL document CHEMBL4814055, “Design, synthesis and molecular modeling studies of novel mesalamine linked coumarin for treatment of inflammatory bowel disease” (Bioorg Med Chem Lett, 2021).
